The NIST ThermoML archive (doi:10.1021/je060271a)
Several values for one entry are separate records, joined by “and”; a condition that tells them apart may be missing. Equal values may be shown once.

Conditions: 283.15 K, Liquid, Vibrating tube method

CCCCCCCC(=O)OCC(COC(=O)CCCCCCC)(COC(=O)CCCCCCC)COC(=O)CCCCCCC [pentaerythritol tetraoctanoate]
Conditions	mass density
105.3 kPa	970.3 kg/m3
105.5 kPa	970.3 kg/m3 and 970.4 kg/m3
105.6 kPa	970.3 kg/m3
105.8 kPa	970.4 kg/m3
106.7 kPa	970.3 kg/m3
110 kPa	970.3 kg/m3
125.3 kPa	970.3 kg/m3
155.9 kPa	970.3 kg/m3
203.3 kPa	970.4 kg/m3
224.9 kPa	970.3 kg/m3
235.2 kPa	970.4 kg/m3
246.6 kPa	970.5 kg/m3
262.8 kPa	970.4 kg/m3
277.9 kPa	970.4 kg/m3
295.3 kPa	970.4 kg/m3
319.3 kPa	970.4 kg/m3
342 kPa	970.5 kg/m3
369 kPa	970.5 kg/m3
405 kPa	970.4 kg/m3
438.1 kPa	970.4 kg/m3
468.4 kPa	970.6 kg/m3
495.5 kPa	970.6 kg/m3
514.6 kPa	970.6 kg/m3
534.1 kPa	970.6 kg/m3
557.4 kPa	970.6 kg/m3
575.1 kPa	970.6 kg/m3
593.5 kPa	970.7 kg/m3
616.6 kPa	970.7 kg/m3
636.3 kPa	970.5 kg/m3
653.5 kPa	970.7 kg/m3
671.5 kPa	970.7 kg/m3
693.4 kPa	970.7 kg/m3
713.6 kPa	970.7 kg/m3
734.1 kPa	970.7 kg/m3
760.8 kPa	970.8 kg/m3
784.3 kPa	970.7 kg/m3
808.6 kPa	970.7 kg/m3
834.5 kPa	970.7 kg/m3
866.8 kPa	970.7 kg/m3
896 kPa	970.7 kg/m3
926.4 kPa	970.8 kg/m3
962 kPa	970.8 kg/m3
986 kPa	970.9 kg/m3
1010.4 kPa	970.9 kg/m3
1035.5 kPa	970.8 kg/m3
1066.4 kPa	970.9 kg/m3
1094 kPa	970.9 kg/m3
1122.1 kPa	970.9 kg/m3
1158.4 kPa	971 kg/m3
1189.3 kPa	971 kg/m3
1219.2 kPa	971 kg/m3
1247.3 kPa	971 kg/m3
1270.1 kPa	971 kg/m3
1293 kPa	971 kg/m3
1317.3 kPa	971 kg/m3
1349.3 kPa	971.1 kg/m3
1370.1 kPa	971 kg/m3
1401.5 kPa	971 kg/m3
1428.9 kPa	971 kg/m3
1457.4 kPa	971 kg/m3
1492.1 kPa	971.2 kg/m3
1522.7 kPa	971.1 kg/m3
1554.3 kPa	971.1 kg/m3
1587.1 kPa	971.2 kg/m3
1627.7 kPa	971.1 kg/m3
1662.8 kPa	971.2 kg/m3
1700.3 kPa	971.2 kg/m3
1747.1 kPa	971.3 kg/m3
1789.7 kPa	971.2 kg/m3
1830.4 kPa	971.3 kg/m3
1873.1 kPa	971.3 kg/m3
1917.2 kPa	971.4 kg/m3
1972.4 kPa	971.4 kg/m3
2020.6 kPa	971.4 kg/m3
2068.2 kPa	971.4 kg/m3
2110.9 kPa	971.5 kg/m3
2137.9 kPa	971.4 kg/m3
2158.6 kPa	971.5 kg/m3
2179.8 kPa	971.5 kg/m3
2205.6 kPa	971.5 kg/m3
2227.8 kPa	971.7 kg/m3
2250.5 kPa	971.5 kg/m3
2273.6 kPa	971.6 kg/m3
2301.4 kPa	971.6 kg/m3
2325.3 kPa	971.7 kg/m3
2348.9 kPa	971.5 kg/m3
2373 kPa	971.7 kg/m3
2403 kPa	971.7 kg/m3
2427.5 kPa	971.6 kg/m3
2457.8 kPa	971.7 kg/m3
2484 kPa	971.6 kg/m3
2510.7 kPa	971.8 kg/m3
2543.2 kPa	971.8 kg/m3
2571.1 kPa	971.7 kg/m3
2600.6 kPa	971.7 kg/m3
2629 kPa	971.8 kg/m3
2663.7 kPa	971.7 kg/m3
2693.4 kPa	971.8 kg/m3
2723.9 kPa	971.8 kg/m3
2760.8 kPa	971.9 kg/m3
2792.7 kPa	971.8 kg/m3
2824.8 kPa	971.9 kg/m3
2857.6 kPa	971.9 kg/m3
2897.6 kPa	971.9 kg/m3
2931.4 kPa	971.9 kg/m3
2966.3 kPa	972 kg/m3
3008.8 kPa	972 kg/m3
3045.9 kPa	972.1 kg/m3
3082.4 kPa	972.1 kg/m3
3127.9 kPa	971.9 kg/m3
3166.3 kPa	972 kg/m3
3205 kPa	972.1 kg/m3
3245 kPa	972 kg/m3
3285.9 kPa	972.1 kg/m3
3335.9 kPa	972.2 kg/m3
3377.6 kPa	972.1 kg/m3
3420.8 kPa	972.2 kg/m3
3473.3 kPa	972.3 kg/m3
3517.6 kPa	972.2 kg/m3
3564.3 kPa	972.3 kg/m3
3620 kPa	972.3 kg/m3
3667.5 kPa	972.3 kg/m3
3715.9 kPa	972.5 kg/m3
3763.5 kPa	972.5 kg/m3
3809.1 kPa	972.5 kg/m3
3824.1 kPa	972.4 kg/m3
3841.3 kPa	972.6 kg/m3
3855.7 kPa	972.5 kg/m3
3869.7 kPa	972.6 kg/m3
3883.9 kPa	972.5 kg/m3
3899.8 kPa	972.5 kg/m3
4015.4 kPa	972.5 kg/m3
4176.4 kPa	972.7 kg/m3
4313.4 kPa	972.7 kg/m3
4335.2 kPa	972.8 kg/m3
4353.7 kPa	972.9 kg/m3
4372.3 kPa	972.8 kg/m3
4391.7 kPa	972.7 kg/m3
4414.3 kPa	972.8 kg/m3
4433.6 kPa	972.8 kg/m3
4453.1 kPa	972.8 kg/m3
4475.4 kPa	972.8 kg/m3
4475.5 kPa	972.8 kg/m3
4478.4 kPa	972.9 kg/m3
4490.5 kPa	972.9 kg/m3
4492.3 kPa	972.8 kg/m3
4499.1 kPa	972.9 kg/m3
